Experimental data taken from patent US7923004B2 (priority 2006, dated 2011).

Experiments:
[1] = test system: HCV genotype 1b replicon (Huh-Luc-Neo cells); experiment: HCV Replicon RNA (Taqman) Assay, genotype 1b; type: cell-based; settings: Hepatitis C virus, Huh-Luc-Neo cells, genotype 1b, HCV RNA, 72 h, read-out: HCV-1b Replicon Inhibition*, Taqman (EC50)
[2] = Cell Titer-Glo Cell Viability Assay, genotype 1b cells; type: cell-based; settings: human, Huh-Luc-Neo (HCV genotype 1b replicon) cells, HCV genotype 1b assays, read-out: Cytotoxicity* (CC50)
Method: (§1) Cell Seeding and Compound Treatment: Huh-Luc-Neo (Genotype 1b) or En5-3/Htat2ANeo (Genotype 1a) cells are seeded at 5000-7000/well in an opaque-walled 96 plate with Growth Medium (DMEM phenol red free+PS+2 mM glutamine; 100 ul/well). The compounds to be tested for inhibition of cell viability are added to the experimental wells so as to generate a dose response curve (8-9 concentrations, 10 μl/well at 10× assay concentration) and the cells are then incubated (5% CO2, 37° C.) for 72 h.
(§2) Reagent Preparation and Assay: After completion of the incubation period the cell viability measurements are made using the Cell Titre Glo Assay (Promega) according to the manufacturer's recommended protocol. Briefly, the CellTiter-Glo Buffer is thawed and equilibrated to room temperature prior to use. The lyophilized CellTiter-Glo Substrate is also equilibrated to room temperature prior to use. 10 ml of CellTiter-Glo Buffer is then transferred to 1 vial of CellTiter-Glo Substrate and mixed gently with a Vortex. 100 μl of CellTiter-Glo Assay reagent (CellTiter-Glo Buffer+CellTiter-Glo Substrate Mixture) is added to each well. The well contents are mixed for 5 min. on an orbital shaker at room temperature to induce cell lysis and the luminescence is then measured using a luminometer.

[3] = test system: HCV Genotype 1b luc-neo/ET replicon with Y2065H mutation in NS5A; experiment: Luciferase EC50 in Huh7-Lunet cells with luc-neo/ET/Y2065H mutant vs parental luc-neo/ET replicon; type: cell-based; settings: transient replicons, 72 h
Method: Resistance of Compound #64 (Table 1) and related pyrazoles was then determined by treating Huh7-Lunet cells (Koutsoudakis et al, J. Virol. 81(2):588-98, 2007) transiently electroporated with RNAs transcribed from either the luc-neo/ET/Y2065H mutant and the parental luc-neo/ET replicons (Blight et al, J. Virol. 77(5):3181-90, 2003). Huh7-Lunet expressing the luc-neo/ET/Y2065H mutant and the parental luc-neo/ET replicons were treated with selected compounds for 72 hours. EC50 and CC50 values were determined as described in the HCV Replicon Luciferase Assay and CellTiter-Glo Cell Viability Assay protocols. […] CC50s for the compound vs. the luc-neo/ETIY2065H mutant and parental luc-neo/ET replicons were determined to be>33 μM.

[4] = test system: HCV genotype 1b replicon (Huh-Luc-Neo cells); experiment: HCV Replicon Luciferase Assay; type: cell-based; settings: Hepatitis C virus, Huh-Luc-Neo cells, genotype 1b, 72 h, read-out: HCV-1b Replicon Inhibition*, Luciferase (EC50)
[5] = Cell Titer-Glo Cell Viability Assay, genotype 1a cells; type: cell-based; settings: human, En5-3/Htat2ANeo (HCV genotype 1a replicon) cells, HCV-1a assays, read-out: Cytotoxicity* (CC50)
Method: as §1, §2

[6] = test system: HCV genotype 1a replicon (En5-3/Htat2ANeo cells); experiment: HCV-1a Replicon RNA (Taqman) inhibition assay; type: cell-based; settings: Hepatitis C virus, 72 h
[7] = test system: replicon resistant to 10 μM Compound #64 vs wild type Huh-7 Luc-ubi-neo/ET replicon; experiment: Cross resistance of Compound #64 resistant replicon; type: cell-based, HCV genotype 1b; settings: for EC50 Resistant Replicon/EC50 Wild Type Replicon: replicon resistant to 10 μM Compound #64 vs wild type Huh-7 Luc-ubi-neo/ET replicon

SMILES | CC50 at 72 h [5] [nM] | EC50 [6] [nM] | further results
Cc1ccc(O)c(-c2nn(C)cc2C#Cc2ccc(NC(=O)[C@@H]3COCCN3C(=O)[C@H](NC(=O)OC(C)(C)C)c3ccccc3)cc2)c1 [Compound 23A] | – | – | EC50 ([1]; GETYPE1B): < 1000 nM; CC50 at 72 h [2]: > 100000 nM; EC50 Luc-neo-ET-Y2065H/EC50 Luc-neo-ET [3]: 6; EC50 ([4]; GETYPE1B): < 1000 nM
COC(=O)C1CCCN1C(=O)N[C@@H](C(=O)N1CCOC[C@H]1C(=O)Nc1ccc(C#Cc2cn(CCC#N)nc2-c2cc(Cl)ccc2O)cc1)c1ccccc1 (stereo partly drawn) [Compound 14] | > 33300 | < 1000 | –
Cc1ccc(O)c(-c2nn(C)cc2C#Cc2ccc(NC(=O)[C@@H]3COCCN3C(=O)[C@H](NC(=O)N3CCOCC3)c3ccccc3)cc2)c1 [Example 19] | > 33300 | < 1000 | –
N#CCCn1cc(C#Cc2ccc(NC(=O)[C@@H]3COCCN3C(=O)[C@H](NC(=O)N3CCC(=O)CC3)c3ccccc3)cc2)c(-c2cc(Cl)ccc2O)n1 [Compound 7] | > 33300 | < 1000 | –
Cn1cc(C#Cc2ccc(NC(=O)[C@@H]3COCCN3C(=O)[C@H](NC(=O)C3CC3)c3ccccc3)cc2)c(-c2cc(Cl)ccc2O)n1 [Compound 52] | – | – | EC50 [1]: < 1000 nM; CC50 at 72 h [2]: 10000 to 100000 nM; EC50 Luc-neo-ET-Y2065H/EC50 Luc-neo-ET [3]: 79; EC50 [4]: < 1000 nM
N#CCCn1cc(C#Cc2ccc(NC(=O)[C@@H]3COCCN3C(=O)[C@H](NC(=O)N3CCC3)c3ccccc3)cc2)c(-c2cc(Cl)ccc2O)n1 [Compound 15] | > 33300 | < 1000 | –
Cn1cc(C#Cc2ccc(NC(=O)[C@@H]3COCCN3C(=O)[C@H](NC(=O)N3CCOCC3)c3ccccc3)cc2)c(-c2cc(Cl)ccc2O)n1 [Example 17] | > 33300 | – | EC50 ([6]; GETYPE1A): < 1000 nM
C[C@@H]1CN(C(=O)N[C@@H](C(=O)N2CCOC[C@H]2C(=O)Nc2ccc(C#Cc3cn(CCC#N)nc3-c3cc(Cl)ccc3O)cc2)c2ccccc2)C[C@H](C)O1 [Compound 8] | > 33300 | < 1000 | –
Cn1cc(C#Cc2ccc(NC(=O)[C@@H]3COCCN3C(=O)[C@H](NC(=O)c3ccc(C#N)cc3)c3ccccc3)cc2)c(-c2cc(Cl)ccc2O)n1 [Compound 5] | > 33300 | < 1000 | –
N#CCCn1cc(C#Cc2ccc(NC(=O)[C@@H]3COCCN3C(=O)[C@H](NC(=O)NC3CC3)c3ccccc3)cc2)c(-c2cc(Cl)ccc2O)n1 [Compound 3] | > 33300 | < 1000 | –
COc1ccc2c(O[C@@H]3C[C@H]4C(=O)N[C@]5(C(=O)O)C[C@H]5/C=C\CCCCC[C@H](NC(=O)OC5CCCC5)C(=O)N4C3)cc(-c3csc(NC(C)C)n3)nc2c1 [BILN 2061, reference compound] | – | – | EC50 Resistant Replicon/EC50 Wild Type Replicon [7]: 0.656
Cn1cc(C#Cc2ccc(NC(=O)[C@@H]3COCCN3C(=O)[C@H](NC(=O)c3cccs3)c3ccccc3)cc2)c(-c2cc(Cl)ccc2O)n1 [Compound 9] | > 33300 | < 1000 | –
N#CCCn1cc(C#Cc2ccc(NC(=O)[C@@H]3COCCN3C(=O)[C@H](NC(=O)c3cnccn3)c3ccccc3)cc2)c(-c2cc(Cl)ccc2O)n1 [Compound 2] | > 33300 | < 1000 | –
N#CCCn1cc(C#Cc2ccc(NC(=O)[C@@H]3COCCN3C(=O)[C@H](NC(=O)N3CCNC(=O)C3)c3ccccc3)cc2)c(-c2cc(Cl)ccc2O)n1 [Example 20] | > 33300 | < 1000 | –
CC(C)n1cc(C#Cc2ccc(NC(=O)[C@@H]3COCCN3C(=O)[C@H](NC(=O)NC(C)(C)C)c3ccccc3)cc2)c(-c2cc(Cl)ccc2O)n1 [Compound 11] | > 33300 | < 1000 | –
N#CCCn1cc(C#Cc2ccc(NC(=O)[C@@H]3COCCN3C(=O)[C@H](NC(=O)c3ccccc3)c3ccccc3)cc2)c(-c2cc(Cl)ccc2O)n1 [Compound 13] | > 33300 | < 1000 | –
COCC(=O)N[C@@H](C(=O)N1CCOC[C@H]1C(=O)Nc1ccc(C#Cc2cn(C)nc2-c2cc(Cl)ccc2O)cc1)c1ccccc1 [Compound 12] | > 33300 | < 1000 | –
CN(C)CCn1cc(C#Cc2ccc(NC(=O)[C@@H]3COCCN3C(=O)[C@H](NC(=O)NOC(C)(C)C)c3ccccc3)cc2)c(-c2cc(Cl)ccc2O)n1 [Example 18] | 1000 to 10000 | 1000 to 10000 | –
Cn1cc(C#Cc2ccc(NC(=O)[C@@H]3COCCN3C(=O)[C@H](NC(=O)NC(C)(C)C)c3ccccc3)cc2)c(-c2cc(Cl)ccc2O)n1 [Compound 53] | – | – | EC50 [1]: < 1000 nM; CC50 at 72 h [2]: 10000 to 100000 nM; EC50 Luc-neo-ET-Y2065H/EC50 Luc-neo-ET [3]: 71; EC50 [4]: < 1000 nM
CC(C)n1cc(C#Cc2ccc(NC(=O)[C@@H]3COCCN3C(=O)[C@H](NC(=O)c3ccccc3)c3ccccc3)cc2)c(-c2cc(Cl)ccc2O)n1 [Compound 6] | > 33300 | < 1000 | –
Cn1cc(C#Cc2ccc(NC(=O)[C@@H]3COCCN3C(=O)[C@H](NC(=O)N3CCC3)c3ccccc3)cc2)c(-c2cc(Cl)ccc2O)n1 [Compound 10] | > 33300 | < 1000 | –
Cc1ccc(O)c(-c2nn(C)cc2C#Cc2ccc(NC(=O)[C@@H]3COCCN3C(=O)[C@H](NC(=O)OC(C)(C)C)c3ccccc3)cc2)c1 | – | – | cross resistance in Compound #64 resistant replicon ([7]; replicon resistant to 10 μM Compound #64): cross resistant; EC50 Resistant Replicon/EC50 Wild Type Replicon [7]: 7.125
CN1CCN(C(=O)N[C@@H](C(=O)N2CCOC[C@H]2C(=O)Nc2ccc(C#Cc3cn(CCC#N)nc3-c3cc(Cl)ccc3O)cc2)c2ccccc2)CC1 [Compound 16] | 1000 to 10000 | < 1000 | –
